According to patent publication US20040038861A1, “Methods and compositions for normalizing lipid levels in mammalian tissues” (priority 2001, published 2004):
Read-outs that look alike come from different tables or passages of the source.

Key:
[1] = target: binding sites for CGRP in rat liver membranes; settings: cited from earlier work
[2] = target: T1, murine ramp 1/C1ins− receptor (Mus musculus, UniProt Q60755+Q9WTJ5); assay: Radioligand binding and displacement of [3H]amylin in L6 myoblasts co-transfected with murine ramp 1 and C1ins−; settings: 10 nM radioligand, FIG. 8D
T1 construct: expressed in transfected cells; host or cells: L6 myoblasts (ATCC), transient co-transfection of pcDNA3.1 plasmids
T1 sequence (Q60755 42-496 isoform Q60755-2 limits assumed): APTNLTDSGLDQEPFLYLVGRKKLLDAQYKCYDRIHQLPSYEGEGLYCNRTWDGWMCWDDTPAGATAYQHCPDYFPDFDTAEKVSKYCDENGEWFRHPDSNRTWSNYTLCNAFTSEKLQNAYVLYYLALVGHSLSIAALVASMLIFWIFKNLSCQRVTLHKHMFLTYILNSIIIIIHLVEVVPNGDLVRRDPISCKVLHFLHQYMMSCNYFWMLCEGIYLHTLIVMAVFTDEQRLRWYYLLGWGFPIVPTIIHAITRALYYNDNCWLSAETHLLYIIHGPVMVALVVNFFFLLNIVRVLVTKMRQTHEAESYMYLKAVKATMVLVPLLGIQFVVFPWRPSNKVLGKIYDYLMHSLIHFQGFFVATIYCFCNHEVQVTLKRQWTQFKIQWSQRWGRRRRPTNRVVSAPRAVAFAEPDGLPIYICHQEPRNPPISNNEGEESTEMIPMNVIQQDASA
T1 sequence (Q9WTJ5 27-148 partner): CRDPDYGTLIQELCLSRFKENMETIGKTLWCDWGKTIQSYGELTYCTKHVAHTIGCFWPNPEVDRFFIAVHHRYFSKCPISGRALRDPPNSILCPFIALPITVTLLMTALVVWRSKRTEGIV
Protocol: Transfection of L6 myoblasts and cos-7 cells, and analysis of radioligand binding. L6 myoblasts and cos-7 cells were obtained from ATCC. Both cell lines were cultered in Dulbecco's modified Eagle's medium (DMEM; Gibco/BRL, high glucose) supplemented with 10% fetal calf serum (Gibco/BRL, Gaithersburg, Md.), L-glutamine (2 mM), penicillin (100 U/ml; Sigma), streptomycin (100 mg/ml; Sigma), saline (0.85%), under 5% CO2/95% air at 37° C. The day before transfection, cells were trypsinised and seeded into six-well plates at a density of 2.9×10^5 cells/well in the same medium. For transfection, cells were incubated with a mixture comprising 1 μg each of Qiagen-purified (Qiagen, Valencia, Calif.) plasmids containing C1ins− with either ramp 1 or ramp 3, and Fugene reagent (6 μl; Boehringer Mannheim) in Opti-Mem I medium (Gibco/BRL). The complex was added with serum to cells, which were incubated for a further 48 h.
For binding experiments, radioligand (either alone or together with stated final concentrations of non-radiolabeled ligands) was dissolved in DMEM containing 0.1% BSA (binding buffer) for 1 h before binding experiments were performed. […] Cells were washed twice with this buffer, then incubated with 1 ml of the same plus radioligand for 4 h at room temperature (21° C.).

In the case of rat CGRP-1, the Kd ([1]; read-out: Kd, high affinity binding site) is given as roughly 0.044 nM and the Kd ([1]; read-out: Kd, second binding site) is given as roughly 27 nM.
In the case of Rat amylin, the “specific binding of [3H]radioligand to L6 myoblasts co-transfected with ramp 1 and C1ins−” value [2] is reported as “significant increases in specific binding”.
